Results on 14 molecules are retold here after article PMC4569708, “Synergistic activation of human pregnane X receptor by binary cocktails of pharmaceutical and environmental compounds” (Nature Communications, 2015).

This data set concerns the target T1, PXR (Homo sapiens, UniProt O75469).
T1 sequence (O75469 107-434): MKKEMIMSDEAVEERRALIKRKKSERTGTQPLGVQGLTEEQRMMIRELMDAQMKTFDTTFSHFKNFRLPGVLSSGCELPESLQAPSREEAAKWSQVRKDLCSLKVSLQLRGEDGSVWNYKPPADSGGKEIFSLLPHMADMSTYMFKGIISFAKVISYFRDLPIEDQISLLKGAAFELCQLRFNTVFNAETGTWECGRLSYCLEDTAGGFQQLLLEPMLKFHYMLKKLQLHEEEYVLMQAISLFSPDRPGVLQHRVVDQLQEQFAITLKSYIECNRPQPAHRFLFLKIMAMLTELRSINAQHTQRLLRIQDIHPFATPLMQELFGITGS
Nature of the data set: Medium-throughput screening, HG5LN GAL4-PXR-LBD reporter cell line (HeLa). The settings on record: HG5LN GAL4-PXR reporter cells; 3 µM SR12813 = 100% activation; determined prior to the screening. The text has this:
Using medium-throughput ligand screening and a mammalian (HeLa) cell-based activation assay (HG5LN GAL4-PXR-LBD reporter cell line)[14][15], we monitored the agonistic potential of 40 chemicals either alone or in binary mixtures (Supplementary Table 1). […] We next examined the effect of TNC, EE2, and their combination in human liver (HepG2) and colon (LS174T) carcinoma cell lines containing the full-length PXR and the CYP3A4-XREM luciferase reporter plasmids.
LS174T stable human PXR transfectant (LS-PXR2) and the corresponding control cells (LS-CTRL), HEPG2-PXR and HG5LN GAL4-PXR reporter cell lines were previously described. […] HEPG2-PXR was obtained after stable transfection of the same PXR expressing plasmid and the XREM-CYP3A4 pGL3b reporter plasmid. […] Finally, LS174T-PXR reporter cell line was established by stable transfection of the CYP3A4-luciferase-hygromycine plasmid in the LS-PXR2 cell line. All cell lines were grown in DMEM medium (Invitrogen) supplemented with 10% fetal calf serum, L-glutamine, and antibiotics (Invitrogen).
HG5LN GAL4-PXR reporter cell lines (100 μl) were seeded at a density of 25,000 cells per well in 96-well white opaque tissue culture plates (Greiner CellStar). […] Then the ligand to be tested in combination with the different ligands was added (50 μl). Cells were incubated at 37 °C for 16 h. At the end of the incubation period, culture medium was replaced with medium containing 3.10^−4 M luciferin. Luciferase activity was measured for 2 s in intact living cells using a plate reader (PerkinElmer Luminometer).
Supplementary Table 1 | Compounds used for screening
#For each ligand, the concentration used was determined prior to the screening experiment. It represents the dose at which the
synthetized in the laboratory4. **Compounds purchased from Tocris Biosciences. ***Compounds purchased by Sigma
Aldrich.****Gift from Sanofi Aventis. All compound stock solutions were prepared at 10 mM in DMSO.

As for `Clc1ccc(C(c2ccccc2Cl)C(Cl)(Cl)Cl)cc1` (centres unmarked) [2,4’DDT], the Concentration: dose at which the compound alone induces ≈30% of the luciferase expression obtained with 3 µM SR12813 is 3000 nM.

As for `Clc1ccc(C(c2ccc(Cl)cc2)C(Cl)(Cl)Cl)cc1` [4,4’DDT], the Concentration: dose at which the compound alone induces ≈30% of the luciferase expression obtained with 3 µM SR12813 came to 3000 nM.

For `Cc1ccc(/C=C2/C(=O)C3(C)CCC2C3(C)C)cc1` (centres unmarked) [4-methylbenzylidene camphor], the Concentration: dose at which the compound alone induces ≈30% of the luciferase expression obtained with 3 µM SR12813 came to 1000 nM.

Consider `Cc1cc(C(C)(C)C)ccc1O` [4-tert-butyl-2-methylphenol], for which the Concentration: dose at which the compound alone induces ≈30% of the luciferase expression obtained with 3 µM SR12813 turned out to be 1000 nM.

With `CCCCOC(=O)c1ccccc1C(=O)OCc1ccccc1` [Benzyl butyl phthalate], the Concentration: dose at which the compound alone induces ≈30% of the luciferase expression obtained with 3 µM SR12813 came to 1000 nM.

Regarding `Clc1ccccc1C(c1ccccc1)(c1ccccc1)n1ccnc1` [Clotrimazol, reference compound], the “Concentration: dose at which the compound alone induces ≈30% of the luciferase expression obtained with 3 µM SR12813” value is on record as 300 nM.

Take `CC1(C)C(C=C(Cl)Cl)C1C(=O)OC(C#N)c1cccc(Oc2ccccc2)c1` (centres unmarked) [Cypermethrine]: the Concentration: dose at which the compound alone induces ≈30% of the luciferase expression obtained with 3 µM SR12813 came to 3000 nM.

As for `N#Cc1nn(-c2c(Cl)cc(C(F)(F)F)cc2Cl)c(N)c1S(=O)(=O)C(F)(F)F` [Fipronil sulfone], the Concentration: dose at which the compound alone induces ≈30% of the luciferase expression obtained with 3 µM SR12813 was 3000 nM.

Consider `CO[C@H]1/C=C/O[C@@]2(C)Oc3c(C)c(O)c4c(O)c(c(/C=N/N5CCN(C)CC5)c(O)c4c3C2=O)NC(=O)/C(C)=C\C=C\[C@H](C)[C@H](O)[C@@H](C)[C@@H](O)[C@@H](C)[C@H](OC(C)=O)[C@@H]1C` [Rifampicin, reference compound], for which the “Concentration: dose at which the compound alone induces ≈30% of the luciferase expression obtained with 3 µM SR12813” value was determined as 300 nM.

In the case of `CC(=O)O[C@H]1C(=O)[C@@]2(C)[C@H]([C@H](OC(=O)c3ccccc3)[C@]3(O)C[C@H](OC(=O)[C@H](O)[C@@H](NC(=O)c4ccccc4)c4ccccc4)C(C)=C1C3(C)C)[C@]1(OC(C)=O)CO[C@@H]1C[C@@H]2O` [TAXOL, reference compound], the “Concentration: dose at which the compound alone induces ≈30% of the luciferase expression obtained with 3 µM SR12813” value is recorded as 30 nM.

`Clc1cnc(Oc2ccc(Oc3ncc(Cl)cc3Cl)cc2)c(Cl)c1` [TCPOBOP, reference compound]: the Concentration: dose at which the compound alone induces ≈30% of the luciferase expression obtained with 3 µM SR12813 was 1000 nM.

As to `C[C@H]1CCCC(=O)CCC/C=C/c2cc(O)cc(O)c2C(=O)O1` [Zearalenone], the Concentration: dose at which the compound alone induces ≈30% of the luciferase expression obtained with 3 µM SR12813 was 1000 nM.

For the molecule -zearalanol, the Concentration: dose at which the compound alone induces ≈30% of the luciferase expression obtained with 3 µM SR12813 is 1000 nM.

With -zearalenol, the “Concentration: dose at which the compound alone induces ≈30% of the luciferase expression obtained with 3 µM SR12813” value is 300 nM.
